molecular target: T1, PI3Kγ (p101/p110γ protein) (Homo sapiens, UniProt P48736); assay: PI3Kγ In Vitro Kinase Assay; format: biochemical; settings: purified recombinant p101/p110γ with G protein β1/γ2 subunits; 20 μM ATP, 25 μM PIP2; 20 minutes at room temperature
T1 construct: HA; made in house; host or cells: Spodoptera frugiperda (Sf9) cells, baculovirus co-infection
How it was run: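 Sf9-expressed, purified human p101/p110γ (2.7 nM) was activated by Gβ1/γ2 (57.7 nM) and reacted with 20 μM ATP plus [γ-32P]ATP on PIP2 (25 μM)/PE (300 μM) micelles with 10 mM MgCl2 in HEPES buffer. Reactions ran 20 min at room temperature. Filter-captured radiolabeled PIP3 was counted by scintillation.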

T1 sequence (P48736 whole entry, species assumed): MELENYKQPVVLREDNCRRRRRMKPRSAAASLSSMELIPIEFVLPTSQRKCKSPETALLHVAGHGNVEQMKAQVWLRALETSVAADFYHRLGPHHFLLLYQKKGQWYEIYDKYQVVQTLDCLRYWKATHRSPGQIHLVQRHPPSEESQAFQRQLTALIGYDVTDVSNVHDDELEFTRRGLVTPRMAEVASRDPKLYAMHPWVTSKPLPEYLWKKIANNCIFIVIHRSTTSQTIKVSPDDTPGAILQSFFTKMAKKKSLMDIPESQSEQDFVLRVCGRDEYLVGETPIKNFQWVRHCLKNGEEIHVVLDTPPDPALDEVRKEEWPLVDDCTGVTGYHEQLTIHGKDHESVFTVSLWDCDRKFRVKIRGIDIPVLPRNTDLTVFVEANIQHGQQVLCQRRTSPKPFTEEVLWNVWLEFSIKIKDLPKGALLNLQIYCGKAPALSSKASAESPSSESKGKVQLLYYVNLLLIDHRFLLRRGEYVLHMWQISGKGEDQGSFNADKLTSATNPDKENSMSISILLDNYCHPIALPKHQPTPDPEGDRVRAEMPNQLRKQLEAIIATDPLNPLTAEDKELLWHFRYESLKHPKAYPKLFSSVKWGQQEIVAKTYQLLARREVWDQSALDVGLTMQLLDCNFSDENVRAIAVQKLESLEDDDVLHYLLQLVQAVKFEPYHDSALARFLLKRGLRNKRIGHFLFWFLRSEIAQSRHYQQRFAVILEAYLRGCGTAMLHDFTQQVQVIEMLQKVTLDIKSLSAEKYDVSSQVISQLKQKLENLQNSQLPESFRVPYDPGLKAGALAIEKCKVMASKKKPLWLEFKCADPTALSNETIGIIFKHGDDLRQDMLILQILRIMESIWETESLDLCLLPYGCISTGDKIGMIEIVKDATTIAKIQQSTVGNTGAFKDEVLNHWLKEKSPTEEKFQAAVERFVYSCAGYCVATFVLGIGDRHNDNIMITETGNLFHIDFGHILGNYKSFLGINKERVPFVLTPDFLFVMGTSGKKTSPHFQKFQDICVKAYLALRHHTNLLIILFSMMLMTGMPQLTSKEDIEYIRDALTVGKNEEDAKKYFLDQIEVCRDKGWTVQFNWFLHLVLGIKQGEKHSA
T1 sequence (Q8WYR1 whole entry partner, species assumed): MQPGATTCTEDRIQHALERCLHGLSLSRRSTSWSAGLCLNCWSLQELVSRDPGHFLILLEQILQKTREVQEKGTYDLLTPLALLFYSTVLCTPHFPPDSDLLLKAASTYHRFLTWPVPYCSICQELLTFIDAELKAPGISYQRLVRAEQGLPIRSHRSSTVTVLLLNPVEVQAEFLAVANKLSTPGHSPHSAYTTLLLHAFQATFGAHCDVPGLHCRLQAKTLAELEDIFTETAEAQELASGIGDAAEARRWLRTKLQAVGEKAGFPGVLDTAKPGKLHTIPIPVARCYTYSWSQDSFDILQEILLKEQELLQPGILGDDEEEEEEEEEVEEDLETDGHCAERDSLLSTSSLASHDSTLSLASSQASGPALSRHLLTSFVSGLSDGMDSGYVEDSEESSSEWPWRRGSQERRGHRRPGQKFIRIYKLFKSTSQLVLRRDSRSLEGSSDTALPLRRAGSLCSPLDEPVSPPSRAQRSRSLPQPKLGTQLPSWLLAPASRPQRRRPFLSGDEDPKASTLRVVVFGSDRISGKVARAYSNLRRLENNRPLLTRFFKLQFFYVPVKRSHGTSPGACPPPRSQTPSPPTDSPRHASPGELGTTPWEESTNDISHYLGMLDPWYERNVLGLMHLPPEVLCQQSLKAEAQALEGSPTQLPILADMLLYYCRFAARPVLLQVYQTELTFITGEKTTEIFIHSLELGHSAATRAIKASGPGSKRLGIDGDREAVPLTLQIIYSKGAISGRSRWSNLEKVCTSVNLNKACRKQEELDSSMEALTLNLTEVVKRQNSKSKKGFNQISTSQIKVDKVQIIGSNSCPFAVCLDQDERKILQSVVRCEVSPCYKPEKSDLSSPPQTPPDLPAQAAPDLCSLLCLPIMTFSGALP

SMILES	IC50 [nM]
CC(C)(C)c1cc(CN2C(=O)COc3ccc(C=C4SC(=S)NC4=O)cc32)cc(C(=O)N2CCOCC2)c1 [Example 275, 4-[3-tert-Butyl-5-(morpholine-4-carbonyl)-benzyl]-6-(4-oxo-2-thioxo-thiazolidin-5-ylidenemethyl)-4H-1,4-benzoxazin-3-one; compound with ethane-1,2-diamine]	25
CN1CCN(C(=O)c2cc(CN3C(=O)COc4ccc(/C=C5\SC(=S)NC5=O)cc43)cc(C(C)(C)C)c2)CC1 [Example 279, 4-[3-tert-Butyl-5-(4-methyl-piperazine-1-carbonyl)-benzyl]-6-[4-oxo-2-thioxo-thiazolidin-(5Z)-ylidenemethyl]-4H-benzo[1,4]oxazin-3-one]	16
CC(C)(O)c1cccc(CN2C(=O)COc3ccc(/C=C4\SC(=S)NC4=O)cc32)c1 [Example 282, 4-[3-(1-Hydroxy-1-methyl-ethyl)-benzyl]-6-[4-oxo-2-thioxo-thiazolidin-(5Z)-ylidenemethyl]-4H-benzo[1,4]oxazin-3-one; Compound with ethane-1,2-diamine]	13
CC(=O)OCc1cc(CN2C(=O)COc3c(F)cc(/C=C4\SC(=S)NC4=O)cc32)cc(C(C)(C)C)c1 [Example 285, Acetic acid 3-tert-butyl-5-{8-fluoro-3-oxo-6-[4-oxo-2-thioxo-thiazolidin-(5Z)-ylidenemethyl]-2,3-dihydro-benzo[1,4]oxazin-4-ylmethyl}-benzyl ester]	21
O=C1NC(=S)S/C1=C\c1ccc2oc(=O)n(Cc3ccc(Cl)c(Cl)c3)c2c1 [Example 286, 3-(3,4-Dichloro-benzyl)-5-[4-oxo-2-thioxo-thiazolidin-(5Z)-ylidenemethyl]-3H-benzooxazol-2-one]	220
O=C1NC(=S)S/C1=C\c1ccc2c(c1)N(Cc1ccc(I)cc1)C(=O)CO2 [Example 287, 4-(4-Iodo-benzyl)-6-[4-oxo-2-thioxo-thiazolidin-(5Z)-ylidenemethyl]-4H-benzo[1,4]oxazin-3-one]	16
O=C1NC(=S)S/C1=C\c1ccc2c(c1)N(Cc1ccc(C(=O)O)cc1)C(=O)CO2 [Example 288, 4-{3-oxo-6-[4-oxo-2-thioxo-thiazolidin-(5Z)-ylidenemethyl]-2,3-dihydro-benzo[1,4]oxazin-4-ylmethyl}-benzoic acid; Compound with ethane-1,2-diamine]	35
O=C1NC(=S)S/C1=C\c1ccc2oc(=O)n(Cc3ccccc3)c2c1 [Example 290, 3-Benzyl-5-[4-oxo-2-thioxo-thiazolidin-(5Z)-ylidenemethyl]-3H-benzooxazol-2-one; Compound with Ethane-1,2-diamine]	243
CS(=O)(=O)c1ccc(Cn2c(=O)oc3ccc(C=C4SC(=S)NC4=O)cc32)cc1 [Example 291, 3-(4-Methanesulfonyl-benzyl)-5-(4-oxo-2-thioxo-thiazolidin-5-ylidenemethyl)-3H-benzoxazol-2-one; Compound with Ethane-1,2-diamine]	433
CC(C)(O)c1cc(Cl)cc(CN2C(=O)COc3c(F)cc(C=C4SC(=S)NC4=O)cc32)c1 [Example 293, 4-[3-Chloro-5-(1-hydroxy-1-methyl-ethyl)-benzyl]-8-fluoro-6-(4-oxo-2-thioxo-thiazoldin-5-ylidenemethyl)-4H-benzo[1,4]oxazin-3-one; Compound with Ethane-1,2-diamine]	15
O=C(O)CN1C(=O)C(=Cc2cc(F)c3c(c2)N(Cc2ccc(F)c(Cl)c2)C(=O)CO3)SC1=S [Example 296, {5-[4-(3-Chloro-4-fluoro-benzyl)-8-fluoro-3-oxo-3,4-dihydro-2H-benzo[1,4]oxazin-6-ylmethylene]-4-oxo-2-thioxo-thiazolidin-3-yl}-acetic acid; compound with ethane-1,2-diamine]	3850
O=C1NC(=S)SC1=Cc1cc(F)c2c(c1)N(Cc1cc(Br)cc(Br)c1)C(=O)CO2 [Example 297, 4-(3,5-Dibromo-benzyl)-8-fluoro-6-(4-oxo-2-thioxo-thiazolidin-5-ylidenemethyl)-4H-benzo[1,4]oxazin-3-one]	36

Next, values leading:

IC50 [nM]	SMILES
13	COCCOCOCc1cc(CN2C(=O)COc3ccc(/C=C4\SC(=S)NC4=O)cc32)cc(C(C)(C)C)c1 [Example 274, 4-[3-tert-Butyl-5-(2-methoxy-ethoxymethoxymethyl)-benzyl]-6-[4-oxo-2-thioxo-thiazolidin-(5Z)-ylidenemethyl]-4H-benzo[1,4]oxazin-3-one]
7	CC(C)(C)c1cc(CN2C(=O)COc3c(F)cc(/C=C4\SC(=O)NC4=O)cc32)cc(C(C)(C)O)c1 [Example 276, 5-[1-{4-[3-tert-Butyl-5-(1-hydroxy-1-methyl-ethyl)-benzyl]-8-fluoro-3-oxo-3,4-dihydro-2H-benzo[1,4]oxazin-6-yl}-meth-(Z)-ylidene]-thiazolidine-2,4-dione]
5	CC(C)(C)c1cc(CN2CCOCC2)cc(CN2C(=O)COc3ccc(/C=C4\SC(=O)NC4=O)cc32)c1 [Example 277, 5-[1-[4-(3-tert-Butyl-5-morpholin-4-ylmethyl-benzyl)-3-oxo-3,4-dihydro-2H-benzo[1,4]oxazin-6-yl]-meth-(Z)-ylidene]-thiazolidine-2,4-dione]
7	CC(C)(C)c1cc(CN2CCOCC2)cc(CN2C(=O)COc3ccc(/C=C4\SC(=S)NC4=O)cc32)c1 [Example 278, 4-(3-tert-Butyl-5-morpholin-4-ylmethyl-benzyl)-6-[4-oxo-2-thioxo-thiazolidin-(5Z)-ylidenemethyl]-4H-benzo[1,4]oxazin-3-one]
8	CN1CCN(C(=O)c2ccc(CN3C(=O)COc4ccc(/C=C5\SC(=S)NC5=O)cc43)cc2)CC1 [Example 280, 4-[4-(4-Methyl-piperazine-1-carbonyl)-benzyl]-6-[4-oxo-2-thioxo-thiazolidin-(5Z)-ylidenemethyl]-4H-benzo[1,4]oxazin-3-one]
8	O=C1NC(=S)S/C1=C\c1ccc2c(c1)N(Cc1ccc(C(=O)N3CCOCC3)cc1)C(=O)CO2 [Example 281, 4-[4-(Morpholine-4-carbonyl)-benzyl]-6-[4-oxo-2-thioxo-thiazolidin-(5Z)-ylidenemethyl]-4H-benzo[1,4]oxazin-3-one]
11	COC(C)(C)c1cc(CN2C(=O)COc3ccc(/C=C4\SC(=S)NC4=O)cc32)cc(C(C)(C)C)c1 [Example 283, 4-[3-tert-Butyl-5-(1-methoxy-1-methyl-ethyl)-benzyl]-6-[4-oxo-2-thioxo-thiazolidin-(5Z)-ylidenemethyl]-4H-benzo[1,4]oxazin-3-one]
10	CC(C)(C)c1cc(CO)cc(CN2C(=O)COc3c(F)cc(/C=C4\SC(=S)NC4=O)cc32)c1 [Example 284, 4-(3-tert-Butyl-5-hydroxymethyl-benzyl)-8-fluoro-6-[4-oxo-2-thioxo-thiazolidin-(5Z)-ylidenemethyl]-4H-benzo[1,4]oxazin-3-one]
10	CS(=O)(=O)c1ccc(CN2C(=O)COc3c(F)cc(/C=C4\SC(=S)NC4=O)cc32)cc1 [Example 289, 8-Fluoro-4-(4-methanesulfonyl-benzyl)-6-[4-oxo-2-thioxo-thiazolidin-(5Z)-ylidenemethyl]-4H-benzo[1,4]oxazin-3-one; Compound with Ethane-1,2-diamine]
11	O=C1NC(=S)SC1=Cc1cc(F)c2c(c1)N(Cc1ccc(F)c(C(F)(F)F)c1)C(=O)CO2 [Example 292, 8-Fluoro-4-(4-fluoro-3-trifluoromethyl-benzyl)-6-(4-oxo-2-thioxo-thiazolidin-5-ylidenemethyl)-4-H-benzo[1,4]oxazin-3-one]
3	CC(C)(O)c1ccc(CN2C(=O)COc3c(F)cc(C=C4SC(=S)NC4=O)cc32)cc1 [Example 294, 8-Fluoro-4-[4-(1-hydroxy-1-methyl-ethyl)-benzyl]-6-(4-oxo-2-thioxo-thiazolidin-5-ylidenemethyl)-4H-benzo[1,4]oxazin-3-one]
4	O=C1NC(=S)SC1=Cc1ccc2c(c1)N(Cc1cc(F)c(O)c(F)c1)C(=O)CO2 [Example 295, 4-(3,5-Difluoro-4-hydroxy-benzyl)-6-(4-oxo-2-thioxo-thiazolidin-5-ylidenemethyl)-4H-benzo[1,4]oxazin-3-one]
1	O=C1NC(=O)C(=Cc2cc(F)c3c(c2)N(Cc2ccc(F)cc2)C(=O)CO3)S1 [Example 298, 5-[8-Fluoro-4-(4-fluoro-benzyl)-3-oxo-3,4-dihydro-2H-benzo[1,4]oxazin-6-ylmethylene]-thiazolidine-2,4-dione]
6	COc1ccc(CN2C(=O)COc3c(F)cc(C=C4SC(=S)NC4=O)cc32)cc1C(F)(F)F [Example 299, 8-Fluoro-4-(4-methoxy-3-trifluoromethyl-benzyl)-6-(4-oxo-2-thioxo-thiazolidin-5-ylidenemethyl)-4H-benzo[1,4]oxazin-3-one]
3	O=C1NC(=S)OC1=Cc1cc(F)c2c(c1)N(Cc1ccc(F)c(Cl)c1)C(=O)CO2 [Example 300, 4-(3-Chloro-4-fluoro-benzyl)-8-fluoro-6-(4-oxo-2-thioxo-oxazolidin-5-ylidenemethyl)-4H-benzo[1,4]oxazin-3-one]
1	O=C1NC(=S)SC1=Cc1cc(F)c2c(c1)N(Cc1ccc(F)cc1)C(=O)CO2 [Example 301, 8-Fluoro-4-(4-fluoro-benzyl)-6-(4-oxo-2-thioxo-thiazolidin-5-ylidenemethyl)-4H-benzo[1,4]oxazin-3-one]
12	CC(C)(O)c1cc(CN2C(=O)COc3c(F)cc(C=C4SC(=S)NC4=O)cc32)ccc1F [Example 302, 8-Fluoro-4-[4-fluoro-3-(1-hydroxy-1-methyl-ethyl)-benzyl]-6-(4-oxo-2-thioxo-thiazolidin-5-ylidenemethyl)-4H-benzo[1,4]oxazin-3-one; Compound with Ethane-1,2-diamine]

From patent publication US7205295B2, “Benzoxazin-3-ones and derivatives thereof as therapeutic agents” (Warner-Lambert Company LLC, priority 2002, dated 2007)
